Results reported in ChEMBL document CHEMBL1926576, “Fragment based lead discovery of small molecule inhibitors for the EPHA4 receptor tyrosine kinase” (Eur J Med Chem, 2012).
pIC50: −log10 of the molar value.

Columns and labels:
[1] = biological target: Dual specificity mitogen-activated protein kinase kinase 1 (Homo sapiens) (UniProt Q02750); assay: Inhibition of MKK1 assessed as residual activity at 10 uM using [33P-ATP] by radiometric filter binding assay
[2] = biological target: Rho-associated protein kinase 2 (Homo sapiens) (UniProt O75116); assay: Inhibition of ROCK2 assessed as residual activity at 10 uM using [33P-ATP] by radiometric filter binding assay
[3] = biological target: Mitogen-activated protein kinase 10 (Homo sapiens) (UniProt P53779); assay: Inhibition of JNK3 assessed as residual activity at 10 uM using [33P-ATP] by radiometric filter binding assay
[4] = biological target: Ephrin type-A receptor 4 (Homo sapiens, UniProt P54764); assay: Inhibition of his-tagged EPHA4-mediated poly(Glu,Tyr) phosphorylation after 75 mins using E4:Y1 as substrate by fluorescence assay
[5] = biological target: MAP/microtubule affinity-regulating kinase 3 (Homo sapiens) (UniProt P27448); assay: Inhibition of MARK3 assessed as residual activity at 10 uM using [33P-ATP] by radiometric filter binding assay
[6] = biological target: Ribosomal protein S6 kinase alpha-5 (Homo sapiens) (UniProt O75582); assay: Inhibition of MSK1 assessed as residual activity at 10 uM using [33P-ATP] by radiometric filter binding assay
[7] = Inhibition of CK2 assessed as residual activity at 10 uM using [33P-ATP] by radiometric filter binding assay
[8] = biological target: Serine/threonine-protein kinase pim-1 (Homo sapiens) (UniProt P11309); assay: Inhibition of PIM1 assessed as residual activity at 10 uM using [33P-ATP] by radiometric filter binding assay
Chain of Serine/threonine-protein kinase pim-1 (Homo sapiens) (P11309 whole entry, looked up): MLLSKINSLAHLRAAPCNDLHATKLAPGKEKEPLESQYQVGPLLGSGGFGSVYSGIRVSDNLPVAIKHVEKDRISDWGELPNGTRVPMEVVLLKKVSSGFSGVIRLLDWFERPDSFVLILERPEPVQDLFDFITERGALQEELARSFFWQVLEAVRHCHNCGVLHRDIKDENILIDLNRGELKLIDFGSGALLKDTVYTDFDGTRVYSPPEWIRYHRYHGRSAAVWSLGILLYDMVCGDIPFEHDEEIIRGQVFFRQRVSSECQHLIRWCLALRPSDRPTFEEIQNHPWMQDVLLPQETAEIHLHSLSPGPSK

[9] = Inhibition of PHK assessed as residual activity at 10 uM using [33P-ATP] by radiometric filter binding assay
[10] = biological target: Aurora kinase B (Homo sapiens) (UniProt Q96GD4); assay: Inhibition of aurora-B assessed as residual activity at 10 uM using [33P-ATP] by radiometric filter binding assay
[11] = biological target: MAP kinase-activated protein kinase 2 (Homo sapiens) (UniProt P49137); assay: Inhibition of MAPKAP-K2 assessed as residual activity at 10 uM using [33P-ATP] by radiometric filter binding assay
Chain of MAP kinase-activated protein kinase 2 (Homo sapiens) (P49137 whole entry, looked up): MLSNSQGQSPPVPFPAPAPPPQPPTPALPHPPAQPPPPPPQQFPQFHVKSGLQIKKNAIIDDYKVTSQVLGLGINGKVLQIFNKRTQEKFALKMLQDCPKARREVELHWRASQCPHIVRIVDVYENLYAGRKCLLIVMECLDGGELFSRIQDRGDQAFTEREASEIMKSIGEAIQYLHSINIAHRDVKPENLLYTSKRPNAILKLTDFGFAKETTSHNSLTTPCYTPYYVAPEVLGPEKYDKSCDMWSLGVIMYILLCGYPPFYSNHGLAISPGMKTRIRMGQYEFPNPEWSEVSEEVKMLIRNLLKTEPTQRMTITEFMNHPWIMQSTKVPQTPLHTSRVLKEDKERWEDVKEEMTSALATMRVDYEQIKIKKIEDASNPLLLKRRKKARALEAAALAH

[12] = biological target: Mitogen-activated protein kinase 11 (Homo sapiens) (UniProt Q15759); assay: Inhibition of p38beta MAPK assessed as residual activity at 10 uM using [33P-ATP] by radiometric filter binding assay
[13] = biological target: MAP kinase-interacting serine/threonine-protein kinase 2 (Homo sapiens) (UniProt Q9HBH9); assay: Inhibition of MNK2 assessed as residual activity at 10 uM using [33P-ATP] by radiometric filter binding assay
Chain of MAP kinase-interacting serine/threonine-protein kinase 2 (Homo sapiens) (Q9HBH9 whole entry, looked up): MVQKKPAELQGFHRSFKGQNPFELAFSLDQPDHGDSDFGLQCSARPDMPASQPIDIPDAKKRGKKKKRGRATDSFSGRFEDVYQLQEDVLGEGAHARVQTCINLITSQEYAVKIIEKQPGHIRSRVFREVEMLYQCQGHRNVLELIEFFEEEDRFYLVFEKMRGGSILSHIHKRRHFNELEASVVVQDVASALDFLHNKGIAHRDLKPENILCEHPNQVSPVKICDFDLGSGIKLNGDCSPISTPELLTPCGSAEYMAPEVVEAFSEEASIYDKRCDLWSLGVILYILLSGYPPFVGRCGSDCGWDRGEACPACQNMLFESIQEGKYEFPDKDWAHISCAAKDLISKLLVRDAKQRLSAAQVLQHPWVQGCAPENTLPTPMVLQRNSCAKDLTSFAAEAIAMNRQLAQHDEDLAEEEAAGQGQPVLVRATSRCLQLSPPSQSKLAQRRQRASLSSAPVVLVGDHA

[14] = biological target: Glycogen synthase kinase-3 beta (Homo sapiens) (UniProt P49841); assay: Inhibition of GSK3b assessed as residual activity at 10 uM using [33P-ATP] by radiometric filter binding assay
[15] = biological target: Dual specificity mitogen-activated protein kinase kinase 2 (Homo sapiens) (UniProt P36507); assay: Inhibition of MKK2 assessed as residual activity at 10 uM using [33P-ATP] by radiometric filter binding assay
[16] = biological target: Ribosomal protein S6 kinase alpha-1 (Homo sapiens) (UniProt Q15418); assay: Inhibition of RSK1 assessed as residual activity at 10 uM using [33P-ATP] by radiometric filter binding assay
Chain of Ribosomal protein S6 kinase alpha-1 (Homo sapiens) (Q15418 whole entry): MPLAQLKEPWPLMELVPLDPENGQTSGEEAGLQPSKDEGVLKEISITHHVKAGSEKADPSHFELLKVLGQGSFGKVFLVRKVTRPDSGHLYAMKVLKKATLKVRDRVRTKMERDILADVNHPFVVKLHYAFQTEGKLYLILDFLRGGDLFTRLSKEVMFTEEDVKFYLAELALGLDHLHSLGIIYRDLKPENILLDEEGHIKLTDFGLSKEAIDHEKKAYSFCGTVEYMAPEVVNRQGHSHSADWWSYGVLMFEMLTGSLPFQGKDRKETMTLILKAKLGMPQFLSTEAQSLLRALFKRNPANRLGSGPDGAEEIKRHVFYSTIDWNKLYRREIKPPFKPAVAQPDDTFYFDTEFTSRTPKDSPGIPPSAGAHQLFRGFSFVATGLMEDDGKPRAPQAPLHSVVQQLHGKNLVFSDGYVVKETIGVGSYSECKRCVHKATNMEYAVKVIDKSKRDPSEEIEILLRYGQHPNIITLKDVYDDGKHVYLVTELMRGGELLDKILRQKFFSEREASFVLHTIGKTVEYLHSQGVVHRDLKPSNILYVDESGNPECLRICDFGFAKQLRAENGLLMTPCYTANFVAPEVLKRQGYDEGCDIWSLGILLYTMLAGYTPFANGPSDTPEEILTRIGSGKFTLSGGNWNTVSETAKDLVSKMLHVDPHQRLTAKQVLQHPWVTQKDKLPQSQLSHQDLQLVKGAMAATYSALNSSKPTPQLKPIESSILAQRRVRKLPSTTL

[17] = biological target: Protein-tyrosine kinase 6 (Homo sapiens) (UniProt Q13882); assay: Inhibition of BRK assessed as residual activity at 10 uM using [33P-ATP] by radiometric filter binding assay
[18] = biological target: Serine/threonine-protein kinase 26 (Homo sapiens) (UniProt Q9P289); assay: Inhibition of MST4 assessed as residual activity at 10 uM using [33P-ATP] by radiometric filter binding assay
Chain of Serine/threonine-protein kinase 26 (Homo sapiens) (Q9P289 2-416 limits assumed): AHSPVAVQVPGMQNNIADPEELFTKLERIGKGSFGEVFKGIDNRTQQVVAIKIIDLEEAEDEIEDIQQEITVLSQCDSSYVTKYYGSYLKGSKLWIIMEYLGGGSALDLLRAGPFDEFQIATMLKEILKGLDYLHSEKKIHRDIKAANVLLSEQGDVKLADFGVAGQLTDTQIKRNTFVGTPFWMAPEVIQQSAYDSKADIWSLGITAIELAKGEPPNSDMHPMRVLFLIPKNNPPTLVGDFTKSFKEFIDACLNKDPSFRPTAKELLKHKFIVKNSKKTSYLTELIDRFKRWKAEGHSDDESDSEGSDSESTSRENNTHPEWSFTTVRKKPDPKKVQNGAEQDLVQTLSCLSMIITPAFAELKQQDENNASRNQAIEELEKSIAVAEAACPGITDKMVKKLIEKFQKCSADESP

[19] = biological target: Dual specificity protein kinase CLK2 (Homo sapiens) (UniProt P49760); assay: Inhibition of CLK2 assessed as residual activity at 10 uM using [33P-ATP] by radiometric filter binding assay
[20] = Inhibition of AMPK assessed as residual activity at 10 uM using [33P-ATP] by radiometric filter binding assay
[21] = biological target: Mitogen-activated protein kinase 9 (Homo sapiens) (UniProt P45984); assay: Inhibition of JNK2 assessed as residual activity at 10 uM using [33P-ATP] by radiometric filter binding assay
[22] = biological target: Serine/threonine-protein kinase Nek2 (Homo sapiens) (UniProt P51955); assay: Inhibition of NEK2alpha assessed as residual activity at 10 uM using [33P-ATP] by radiometric filter binding assay
[23] = biological target: Inhibitor of nuclear factor kappa-B kinase subunit epsilon (Homo sapiens) (UniProt Q14164); assay: Inhibition of IKKepsilon assessed as residual activity at 10 uM using [33P-ATP] by radiometric filter binding assay
Chain of Inhibitor of nuclear factor kappa-B kinase subunit epsilon (Homo sapiens) (Q14164 whole entry): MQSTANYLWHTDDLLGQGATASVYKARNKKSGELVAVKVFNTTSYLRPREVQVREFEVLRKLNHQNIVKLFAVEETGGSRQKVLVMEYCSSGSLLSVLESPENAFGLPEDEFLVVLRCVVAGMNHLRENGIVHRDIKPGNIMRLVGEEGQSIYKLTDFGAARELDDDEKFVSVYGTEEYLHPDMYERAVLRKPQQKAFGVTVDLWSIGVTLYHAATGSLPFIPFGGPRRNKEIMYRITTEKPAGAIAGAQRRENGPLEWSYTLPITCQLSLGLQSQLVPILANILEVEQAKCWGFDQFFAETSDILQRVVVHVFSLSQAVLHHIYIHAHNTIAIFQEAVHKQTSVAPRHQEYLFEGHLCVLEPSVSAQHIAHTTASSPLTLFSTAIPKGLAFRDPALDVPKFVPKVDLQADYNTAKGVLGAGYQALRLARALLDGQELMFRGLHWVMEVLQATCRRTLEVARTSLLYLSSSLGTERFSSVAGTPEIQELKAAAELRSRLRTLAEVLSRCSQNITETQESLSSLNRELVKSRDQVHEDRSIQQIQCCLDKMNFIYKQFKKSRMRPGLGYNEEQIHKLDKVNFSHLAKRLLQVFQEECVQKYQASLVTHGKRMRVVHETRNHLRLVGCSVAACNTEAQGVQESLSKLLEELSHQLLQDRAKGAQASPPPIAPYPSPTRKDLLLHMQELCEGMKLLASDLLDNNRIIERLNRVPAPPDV

[24] = biological target: Death-associated protein kinase 1 (Homo sapiens) (UniProt P53355); assay: Inhibition of DAPK1 assessed as residual activity at 10 uM using [33P-ATP] by radiometric filter binding assay
Chain of Death-associated protein kinase 1 (Homo sapiens) (P53355 whole entry, looked up): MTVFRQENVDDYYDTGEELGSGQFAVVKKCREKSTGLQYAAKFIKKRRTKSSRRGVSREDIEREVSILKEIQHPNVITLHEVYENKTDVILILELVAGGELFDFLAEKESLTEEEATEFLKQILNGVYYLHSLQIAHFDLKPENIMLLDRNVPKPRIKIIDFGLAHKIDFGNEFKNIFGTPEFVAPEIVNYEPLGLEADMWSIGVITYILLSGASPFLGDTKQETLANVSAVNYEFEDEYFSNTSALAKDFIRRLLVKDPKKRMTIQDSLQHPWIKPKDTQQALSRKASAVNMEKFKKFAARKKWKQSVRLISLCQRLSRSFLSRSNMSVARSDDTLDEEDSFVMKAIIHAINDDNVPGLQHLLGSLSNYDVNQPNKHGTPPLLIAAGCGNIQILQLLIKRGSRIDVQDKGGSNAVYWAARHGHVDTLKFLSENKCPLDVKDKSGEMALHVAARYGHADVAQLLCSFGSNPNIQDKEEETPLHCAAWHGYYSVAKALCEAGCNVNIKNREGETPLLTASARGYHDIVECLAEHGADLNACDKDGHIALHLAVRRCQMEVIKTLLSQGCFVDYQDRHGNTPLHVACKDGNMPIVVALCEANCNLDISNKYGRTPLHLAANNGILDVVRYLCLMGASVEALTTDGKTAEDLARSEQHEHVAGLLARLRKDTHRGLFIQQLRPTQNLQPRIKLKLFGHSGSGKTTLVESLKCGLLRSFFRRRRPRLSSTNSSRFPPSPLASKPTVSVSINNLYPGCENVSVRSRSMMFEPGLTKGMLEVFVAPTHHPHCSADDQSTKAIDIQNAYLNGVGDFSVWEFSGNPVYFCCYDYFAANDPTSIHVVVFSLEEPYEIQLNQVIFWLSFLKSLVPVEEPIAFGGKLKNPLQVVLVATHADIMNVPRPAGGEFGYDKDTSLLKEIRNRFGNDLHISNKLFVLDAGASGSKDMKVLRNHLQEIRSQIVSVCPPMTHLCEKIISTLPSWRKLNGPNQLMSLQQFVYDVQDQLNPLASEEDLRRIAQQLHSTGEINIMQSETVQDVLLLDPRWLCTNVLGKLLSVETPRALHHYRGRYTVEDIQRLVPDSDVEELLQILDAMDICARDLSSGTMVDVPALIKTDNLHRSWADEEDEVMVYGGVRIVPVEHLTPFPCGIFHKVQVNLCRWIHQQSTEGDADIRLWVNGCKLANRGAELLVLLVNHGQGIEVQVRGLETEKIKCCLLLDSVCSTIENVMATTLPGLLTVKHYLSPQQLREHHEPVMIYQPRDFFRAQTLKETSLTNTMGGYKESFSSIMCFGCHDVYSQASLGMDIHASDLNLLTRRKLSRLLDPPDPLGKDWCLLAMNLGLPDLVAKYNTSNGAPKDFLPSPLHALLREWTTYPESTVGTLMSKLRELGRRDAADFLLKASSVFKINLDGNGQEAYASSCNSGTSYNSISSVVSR

[25] = biological target: Tyrosine-protein kinase Lck (Homo sapiens) (UniProt P06239); assay: Inhibition of Lck assessed as residual activity at 10 uM using [33P-ATP] by radiometric filter binding assay
[26] = biological target: Tyrosine-protein kinase JAK2 (Homo sapiens) (UniProt O60674); assay: Inhibition of JAK2 assessed as residual activity at 10 uM using [33P-ATP] by radiometric filter binding assay
[27] = biological target: Mitogen-activated protein kinase 15 (Homo sapiens) (UniProt Q8TD08); assay: Inhibition of ERK8 assessed as residual activity at 10 uM using [33P-ATP] by radiometric filter binding assay
[28] = biological target: Tyrosine-protein kinase CSK (Homo sapiens) (UniProt P41240); assay: Inhibition of CSK assessed as residual activity at 10 uM using [33P-ATP] by radiometric filter binding assay
Chain of Tyrosine-protein kinase CSK (Homo sapiens) (P41240 2-450 limits assumed): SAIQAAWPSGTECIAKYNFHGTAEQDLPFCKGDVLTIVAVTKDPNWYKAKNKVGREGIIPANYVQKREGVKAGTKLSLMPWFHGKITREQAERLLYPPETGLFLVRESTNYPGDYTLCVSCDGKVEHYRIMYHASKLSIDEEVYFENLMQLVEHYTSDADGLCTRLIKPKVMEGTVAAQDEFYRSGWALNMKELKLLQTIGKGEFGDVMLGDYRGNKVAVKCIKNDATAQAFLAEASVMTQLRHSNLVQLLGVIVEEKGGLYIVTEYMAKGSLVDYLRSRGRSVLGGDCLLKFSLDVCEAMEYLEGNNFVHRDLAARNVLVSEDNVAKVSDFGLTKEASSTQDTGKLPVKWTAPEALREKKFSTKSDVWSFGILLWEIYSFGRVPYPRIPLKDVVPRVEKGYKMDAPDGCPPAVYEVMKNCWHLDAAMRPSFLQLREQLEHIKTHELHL

[29] = biological target: Serine/threonine-protein kinase OSR1 (Homo sapiens) (UniProt O95747); assay: Inhibition of OSR1 assessed as residual activity at 10 uM using [33P-ATP] by radiometric filter binding assay
[30] = biological target: Ephrin type-B receptor 2 (Homo sapiens) (UniProt P29323); assay: Inhibition of EPHB2 assessed as residual activity at 10 uM using [33P-ATP] by radiometric filter binding assay
[31] = biological target: Receptor tyrosine-protein kinase erbB-4 (Homo sapiens) (UniProt Q15303); assay: Inhibition of HER4 assessed as residual activity at 10 uM using [33P-ATP] by radiometric filter binding assay
[32] = Inhibition of PKA assessed as residual activity at 10 uM using [33P-ATP] by radiometric filter binding assay
[33] = biological target: Tau-tubulin kinase 1 (Homo sapiens) (UniProt Q5TCY1); assay: Inhibition of TTBK1 assessed as residual activity at 10 uM using [33P-ATP] by radiometric filter binding assay
[34] = biological target: Dual specificity tyrosine-phosphorylation-regulated kinase 2 (Homo sapiens) (UniProt Q92630); assay: Inhibition of DYRK2 assessed as residual activity at 10 uM using [33P-ATP] by radiometric filter binding assay

Activity [1]: 29%
Activity [2]: 90%
Activity [3]: 72%
pIC50 [4]: 5.35
Activity [5]: 81%
Activity [6]: 75%
Activity [7]: 93%
Activity [8]: 76%
Activity [9]: 86%
Activity [10]: 49%
Activity [11]: 89%
Activity [12]: 25%
Activity [13]: 93%
Activity [14]: 73%
Activity [15]: 31%
Activity [16]: 93%
Activity [17]: 71%
Activity [18]: 52%
Activity [19]: 45%
Activity [20]: 86%
Activity [21]: 88%
Activity [22]: 91%
Activity [23]: 96%
Activity [25]: 8%
Activity [26]: 74%
Activity [28]: 35%
Activity [29]: 81%
Activity [30]: 4%
Activity [31]: 56%
Activity [32]: 93%
Activity [33]: 94%
Activity [34]: 101%
Structure (SMILES): Cc1ccc(F)cc1-c1nc2[nH]nc(N)c2c2c1CCCC2
Activity [24]: 101%
Activity [27]: 46%
